Test results: patent US20040162263A1, “Pharmaceutical formulations targeting specific regions of the gastrointesinal tract” (priority 2002, published 2004)
Several values for one entry are separate records, joined by “and”; a condition that tells them apart may be missing. Identical values can stand only once.

Assay: Pharmacokinetics of decitabine in IVAP rabbit model
Type: in vivo, rabbits
Method: Decitabine was administered intravenously to IVAP rabbits (n=3) at three doses: 0.75, 1.5 and 2.5 mg/kg. It was also administered at 2.5mg/kg orally and through previously implanted intestinal and vascular access ports in the portal vein (PV), upper small intestine (USI), lower small intestine (LSI) and colon (IC). All routes received the same simple formulation of raw compound dissolved in cold saline. Care was taken to insure doses were delivered immediately (less than 15 minutes) after dissolving the powder and that the liquid formulation was kept on ice up to the time of administration. Blood samples were taken simultaneously from the median auricular artery and through a port in the portal vein at predetermined time points. Plasma was separated and kept frozen at −70° C. until shipped to Xenobiotic Laboratories for analysis.
Pharmacokinetic parameters were calculated using non-compartmental models with the Winnonlin v3.1 program.

[1] = IC 2.5 mg/kg, only two successful doses, individual values
[2] = IV 0.75 mg/kg, 2 min, 0.75 mg/kg
[3] = IV 0.75 mg/kg, 15 min, 0.75 mg/kg
[4] = IV 0.75 mg/kg, 60 min, 0.75 mg/kg
[5] = IV 0.75 mg/kg, 120 min, 0.75 mg/kg
[6] = IV 0.75 mg/kg, 240 min, 0.75 mg/kg
[7] = IV 1.5 mg/kg, 15 min, 1.5 mg/kg
[8] = IV 1.5 mg/kg, 60 min, 1.5 mg/kg
[9] = IV 1.5 mg/kg, 120 min, 1.5 mg/kg
[10] = IV 1.5 mg/kg, 180 min, 1.5 mg/kg

hepatic first pass effect loss ((AUCIV−AUCPV/AUCIV)×100) (2.5 mg/kg into portal vein): 32%
Individual systemic Bioavailability (IC 2.5 mg/kg): 68.29% and 0.22%
AUC0-inf in Portal Vein [1]: 2.98 ng·h/mL and 830 ng·h/mL
AUC0-inf in Systemic Samples [1]: 2.51 ng·h/mL and 773 ng·h/mL
CMAX (IC 2.5 mg/kg, two individual values): 2.0 ng/mL and 611 ng/mL
concentration PV, Mean (IV 0.75 mg/kg, 2 min): 624 ng/mL
concentration SYS, Mean (IV 0.75 mg/kg, 2 min): 628 ng/mL
concentration PV, individual [2]: 581 ng/mL and 621 ng/mL and 669 ng/mL
concentration SYS, individual [2]: 666 ng/mL and 615 ng/mL and 603 ng/mL
concentration SYS, Mean (IV 0.75 mg/kg, 5 min): 422 ng/mL
concentration SYS, individual (IV 0.75 mg/kg, 5 min, 0.75 mg/kg): 432 ng/mL and 415 ng/mL and 419 ng/mL
concentration PV, Mean (IV 0.75 mg/kg, 15 min): 229 ng/mL
concentration SYS, Mean (IV 0.75 mg/kg, 15 min): 247 ng/mL
concentration PV, individual [3]: 233 ng/mL (2×) and 220 ng/mL
concentration SYS, individual [3]: 257 ng/mL and 233 ng/mL and 250 ng/mL
concentration SYS, Mean (IV 0.75 mg/kg, 30 min): 177 ng/mL
concentration SYS, individual (IV 0.75 mg/kg, 30 min): 177 ng/mL
concentration PV, Mean (IV 0.75 mg/kg, 60 min): 83 ng/mL
concentration SYS, Mean (IV 0.75 mg/kg, 60 min): 98 ng/mL
concentration PV, individual [4]: 95.1 ng/mL and 65.8 ng/mL and 89.1 ng/mL
concentration SYS, individual [4]: 102 ng/mL (2×) and 89.1 ng/mL
concentration PV, Mean (IV 0.75 mg/kg, 120 min): 28 ng/mL
concentration SYS, Mean (IV 0.75 mg/kg, 120 min): 39 ng/mL
concentration PV, individual [5]: 21.1 ng/mL and 34 ng/mL
concentration SYS, individual [5]: 40.6 ng/mL and 35.2 ng/mL and 41 ng/mL
concentration PV, Mean (IV 0.75 mg/kg, 180 min): 14 ng/mL
concentration PV, individual (IV 0.75 mg/kg, 180 min): 13.9 ng/mL
concentration SYS, Mean (IV 0.75 mg/kg, 180 min): 15 ng/mL
concentration SYS, individual (IV 0.75 mg/kg, 180 min, 0.75 mg/kg): 15 ng/mL and 13.9 ng/mL and 15.7 ng/mL
concentration PV, Mean (IV 0.75 mg/kg, 240 min): 5 ng/mL
concentration SYS, Mean (IV 0.75 mg/kg, 240 min): 6 ng/mL
concentration PV, individual [6]: 4.87 ng/mL and 5.76 ng/mL
concentration SYS, individual [6]: 5.9 ng/mL and 6.21 ng/mL and 6.31 ng/mL
concentration PV, Mean (IV 1.5 mg/kg, 2 min): 1140 ng/mL
concentration SYS, Mean (IV 1.5 mg/kg, 2 min): 1080 ng/mL
concentration PV, individual (IV 1.5 mg/kg, 2 min, 1.5 mg/kg): 1300 ng/mL and 1130 ng/mL and 985 ng/mL
concentration SYS, individual (IV 1.5 mg/kg, 2 min, 1.5 mg/kg): 1240 ng/mL and 919 ng/mL
concentration PV, Mean (IV 1.5 mg/kg, 5 min): 652 ng/mL
concentration PV, individual (IV 1.5 mg/kg, 5 min): 652 ng/mL
concentration SYS, Mean (IV 1.5 mg/kg, 5 min): 735 ng/mL
concentration SYS, individual (IV 1.5 mg/kg, 5 min, 1.5 mg/kg): 819 ng/mL and 676 ng/mL and 711 ng/mL
concentration PV, Mean (IV 1.5 mg/kg, 15 min): 350 ng/mL
concentration SYS, Mean (IV 1.5 mg/kg, 15 min): 433 ng/mL
concentration PV, individual [7]: 352 ng/mL and 301 ng/mL and 397 ng/mL
concentration SYS, individual [7]: 443 ng/mL and 404 ng/mL and 453 ng/mL
concentration PV, Mean (IV 1.5 mg/kg, 30 min): 266 ng/mL
concentration PV, individual (IV 1.5 mg/kg, 30 min): 266 ng/mL
concentration SYS, Mean (IV 1.5 mg/kg, 30 min): 330 ng/mL
concentration SYS, individual (IV 1.5 mg/kg, 30 min, 1.5 mg/kg): 355 ng/mL and 304 ng/mL
concentration PV, Mean (IV 1.5 mg/kg, 60 min): 128 ng/mL
concentration SYS, Mean (IV 1.5 mg/kg, 60 min): 156 ng/mL
concentration PV, individual [8]: 124 ng/mL and 119 ng/mL and 141 ng/mL
concentration SYS, individual [8]: 149 ng/mL and 148 ng/mL and 171 ng/mL
concentration PV, Mean (IV 1.5 mg/kg, 120 min): 59 ng/mL
concentration SYS, Mean (IV 1.5 mg/kg, 120 min): 63 ng/mL
concentration PV, individual [9]: 60 ng/mL and 57.2 ng/mL and 58.8 ng/mL
concentration SYS, individual [9]: 62.6 ng/mL and 64.9 ng/mL and 60.3 ng/mL
concentration PV, Mean (IV 1.5 mg/kg, 180 min): 22 ng/mL
concentration SYS, Mean (IV 1.5 mg/kg, 180 min): 24 ng/mL
concentration PV, individual [10]: 22.1 ng/mL and 21.1 ng/mL
concentration SYS, individual [10]: 23.7 ng/mL and 25.3 ng/mL and 23 ng/mL
concentration SYS, individual (IV 1.5 mg/kg, 240 min, 1.5 mg/kg): 10.2 ng/mL
IV AUC0-inf, individual (IV 1.5 mg/kg, 1.5 mg/kg): 552.87 ng·h/mL and 612.34 ng·h/mL
IV AUC0-inf, individual (IV 2.5 mg/kg, 2.5 mg/kg): 896.21 ng·h/mL and 1128.11 ng·h/mL
Individual systemic Bioavailability (LSI 2.5 mg/kg): 44.48% and 51.78%
Volume (Vz) (Oral): 2.29 L/kg
clearance (Oral): 37.7 mL/min/kg
SMILES: Nc1ncn([C@H]2C[C@H](O)[C@@H](CO)O2)c(=O)n1 [decitabine, 5-aza-2′-deoxycytidine]
IV AUC0-inf, individual (IV 0.75 mg/kg, 0.75 mg/kg): 327.37 ng·h/mL and 353.53 ng·h/mL and 354.68 ng·h/mL
